According to patent US8952024B2, “Herbicidal pyrimidone derivatives” (E I du Pont de Nemours and Company, priority 2009, dated 2015):

Assays:
Assay in all cases: Test B pre-/postemergence plant response
Type in all cases: in vivo
[1] = test system: Italian ryegrass (Lolium multiflorum)
Method in brief: (§1)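 Pre-em in loam/sand; post-em at 1–4 leaf (2–18 cm) in peat mix. Solvent + surfactant formulation. Greenhouse 13–15 d; visual % control vs untreated, 0–100.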

[2] = test system: Surinam grass (Brachiaria decumbens)
Method in brief: as §1

[3] = test system: bermudagrass (Cynodon dactylon)
Method in brief: as §1

[4] = test system: blackgrass (Alopecurus myosuroides)
Method in brief: as §1

[5] = test system: corn (Zea mays)
Method in brief: as §1

[6] = test system: downy bromegrass (Bromus tectorum)
Method in brief: as §1

[7] = test system: giant foxtail (Setaria faberii)
Method in brief: as §1

[8] = test system: green foxtail (Setaria viridis)
Method in brief: as §1

[9] = test system: lambsquarters (Chenopodium album)
Method in brief: as §1

[10] = test system: large crabgrass (Digitaria sanguinalis)
Method in brief: as §1

[11] = test system: morningglory (Ipomoea coccinea)
Method in brief: as §1

[12] = test system: woolly cupgrass (Eriochloa villosa)
Method in brief: as §1

[13] = test system: yellow nutsedge (Cyperus esculentus)
Method in brief: as §1

[14] = Postemergence, 31 g ai/ha, 0 to 100 scale (0 no effect, 100 complete control)
[15] = Postemergence, 62 g ai/ha, scale 0 to 100 (0 no effect, 100 complete control)
[16] = Postemergence, 250 g ai/ha, scale 0 to 100 (0 no effect, 100 complete control), 13 to 15 days
[17] = Postemergence, 125 g ai/ha, scale 0 to 100 (0 no effect, 100 complete control)
[18] = Preemergence, 31 g ai/ha, scale 0 to 100 (0 no effect, 100 complete control)
[19] = Preemergence, 62 g ai/ha, scale 0 to 100 (0 no effect, 100 complete control)
[20] = Preemergence, 125 g ai/ha, scale 0 to 100, 0 no effect, 100 complete control
[21] = Preemergence, 250 g ai/ha, 0 to 100 scale

## O=C1CCCC(O)=C1C(=O)c1cnc(-c2ccc(F)cc2)n(C2CCCCC2)c1=O [Compound 197]
[1]; [14]
  Plant response rating, Ryegrass, Italian: 0
[1]; [15]
  Plant response rating, Ryegrass, Italian: 0
[1]; [16]
  Plant response rating, Ryegrass, Italian: 35
[2]; [14]
  Plant response rating, Surinam Grass: 50
[2]; [15]
  Plant response rating, Surinam Grass: 55
[2]; [16]
  Plant response rating, Surinam Grass: 70
[3]; [14]
  Plant response rating, Bermudagrass: 95
[3]; [15]
  Plant response rating, Bermudagrass: 100
[3]; [17]
  Plant response rating, Bermudagrass: 100
[3]; [16]
  Plant response rating, Bermudagrass: 100
[4]; [14]
  Plant response rating, Blackgrass: 0
[4]; [15]
  Plant response rating, Blackgrass: 10
[4]; [17]
  Plant response rating, Blackgrass: 10
[4]; [16]
  Plant response rating, Blackgrass: 45
[5]; [14]
  Plant response rating, Corn: 15
[5]; [15]
  Plant response rating, Corn: 35
[5]; [17]
  Plant response rating, Corn: 45
[5]; [16]
  Plant response rating, Corn: 65
[6]; [14]
  Plant response rating, Bromegrass, Downy: 15
[6]; [15]
  Plant response rating, Bromegrass, Downy: 15
[6]; [17]
  Plant response rating, Bromegrass, Downy: 30
[6]; [16]
  Plant response rating, Bromegrass, Downy: 30
[7]; [14]
  Plant response rating, Foxtail, Giant: 85
[7]; [15]
  Plant response rating, Foxtail, Giant: 95
[7]; [17]
  Plant response rating, Foxtail, Giant: 98
[7]; [16]
  Plant response rating, Foxtail, Giant: 100
[8]; [14]
  Plant response rating, Foxtail, Green: 5
[8]; [15]
  Plant response rating, Foxtail, Green: 30
[8]; [17]
  Plant response rating, Foxtail, Green: 50
[8]; [16]
  Plant response rating, Foxtail, Green: 70
[9]; [14]
  Plant response rating, Lambsquarters: 95
[9]; [15]
  Plant response rating, Lambsquarters: 100
[9]; [17]
  Plant response rating, Lambsquarters: 100
[9]; [16]
  Plant response rating, Lambsquarters: 100
[10]; [14]
  Plant response rating, Crabgrass, Large: 75
[10]; [15]
  Plant response rating, Crabgrass, Large: 85
[10]; [17]
  Plant response rating, Crabgrass, Large: 98
[10]; [16]
  Plant response rating, Crabgrass, Large: 100
[11]; [14]
  Plant response rating, Morningglory: 98
[11]; [15]
  Plant response rating, Morningglory: 100
[11]; [17]
  Plant response rating, Morningglory: 100
[11]; [16]
  Plant response rating, Morningglory: 100
[12]; [14]
  Plant response rating, Cupgrass, Woolly: 70
[12]; [15]
  Plant response rating, Cupgrass, Woolly: 85
[12]; [17]
  Plant response rating, Cupgrass, Woolly: 90
[12]; [16]
  Plant response rating, Cupgrass, Woolly: 98
[13]; [14]
  Plant response rating, Nutsedge, Yellow: 45
[13]; [15]
  Plant response rating, Nutsedge, Yellow: 55
[13]; [17]
  Plant response rating, Nutsedge, Yellow: 65
[13]; [16]
  Plant response rating, Nutsedge, Yellow: 75

## COc1ccc(-n2c(-c3ccccc3)ncc(C(=O)C3=C(O)CCCC3=O)c2=O)cc1OC [Compound 218]
[1]; [14]
  Plant response rating, Ryegrass, Italian: 30
[1]; [15]
  Plant response rating, Ryegrass, Italian: 40
[1]; [16]
  Plant response rating, Ryegrass, Italian: 70
[1]; [18]
  Plant response rating, Ryegrass, Italian: 0
[1]; [19]
  Plant response rating, Ryegrass, Italian: 0
[1]; [20]
  Plant response rating, Ryegrass, Italian: 5
[1]; [21]
  Ryegrass, Italian plant response rating: 5
[2]; [14]
  Plant response rating, Surinam Grass: 75
[2]; [15]
  Plant response rating, Surinam Grass: 80
[2]; [16]
  Plant response rating, Surinam Grass: 90
[2]; [18]
  Plant response rating, Surinam Grass: 10
[2]; [19]
  Plant response rating, Surinam Grass: 65
[2]; [20]
  Plant response rating, Surinam Grass: 98
[2]; [21]
  Surinam Grass plant response rating: 100
[3]; [14]
  Plant response rating, Bermudagrass: 70
[3]; [15]
  Plant response rating, Bermudagrass: 80
[3]; [17]
  Plant response rating, Bermudagrass: 95
[3]; [16]
  Plant response rating, Bermudagrass: 100
[3]; [18]
  Plant response rating, Bermudagrass: 98
[3]; [19]
  Plant response rating, Bermudagrass: 100
[3]; [20]
  Plant response rating, Bermudagrass: 100
[3]; Preemergence, 250 g ai/ha, 0 to 100 scale, 0 no effect, 100 complete control
  Bermudagrass plant response rating: 100
[4]; [14]
  Plant response rating, Blackgrass: 0
[4]; [15]
  Plant response rating, Blackgrass: 0
[4]; [17]
  Plant response rating, Blackgrass: 5
[4]; [16]
  Plant response rating, Blackgrass: 5
[4]; [18]
  Plant response rating, Blackgrass: 0
[4]; [19]
  Plant response rating, Blackgrass: 0
[4]; [20]
  Plant response rating, Blackgrass: 0
[4]; [21]
  Blackgrass plant response rating: 20
[5]; [14]
  Plant response rating, Corn: 0
[5]; [15]
  Plant response rating, Corn: 10
[5]; [17]
  Plant response rating, Corn: 75
[5]; [16]
  Plant response rating, Corn: 80
[5]; [18]
  Plant response rating, Corn: 0
[5]; [19]
  Plant response rating, Corn: 0
[5]; [20]
  Plant response rating, Corn: 0
[5]; [21]
  Corn plant response rating: 0
[6]; [14]
  Plant response rating, Bromegrass, Downy: 5
[6]; [15]
  Plant response rating, Bromegrass, Downy: 15
[6]; [17]
  Plant response rating, Bromegrass, Downy: 20
[6]; [16]
  Plant response rating, Bromegrass, Downy: 30
[6]; [18]
  Plant response rating, Bromegrass, Downy: 0
[6]; [19]
  Plant response rating, Bromegrass, Downy: 0
[6]; [20]
  Plant response rating, Bromegrass, Downy: 0
[6]; [21]
  Bromegrass, Downy plant response rating: 0
[7]; [14]
  Plant response rating, Foxtail, Giant: 40
[7]; [15]
  Plant response rating, Foxtail, Giant: 55
[7]; [17]
  Plant response rating, Foxtail, Giant: 65
[7]; [16]
  Plant response rating, Foxtail, Giant: 85
[7]; [18]
  Plant response rating, Foxtail, Giant: 0
[7]; [19]
  Plant response rating, Foxtail, Giant: 0
[7]; [20]
  Plant response rating, Foxtail, Giant: 20
[7]; [21]
  Foxtail, Giant plant response rating: 85
[8]; [14]
  Plant response rating, Foxtail, Green: 60
[8]; [15]
  Plant response rating, Foxtail, Green: 85
[8]; [17]
  Plant response rating, Foxtail, Green: 90
[8]; [16]
  Plant response rating, Foxtail, Green: 90
[8]; [18]
  Plant response rating, Foxtail, Green: 0
[8]; [19]
  Plant response rating, Foxtail, Green: 30
[8]; [20]
  Plant response rating, Foxtail, Green: 80
[8]; [21]
  Foxtail, Green plant response rating: 100
[9]; [14]
  Plant response rating, Lambsquarters: 98
[9]; [15]
  Plant response rating, Lambsquarters: 98
[9]; [17]
  Plant response rating, Lambsquarters: 100
[9]; [16]
  Plant response rating, Lambsquarters: 100
[9]; [18]
  Plant response rating, Lambsquarters: 100
[9]; [19]
  Plant response rating, Lambsquarters: 100
[9]; [20]
  Plant response rating, Lambsquarters: 100
[9]; [21]
  Lambsquarters plant response rating: 100
[10]; [14]
  Plant response rating, Crabgrass, Large: 40
[10]; [15]
  Plant response rating, Crabgrass, Large: 45
[10]; [17]
  Plant response rating, Crabgrass, Large: 70
[10]; [16]
  Plant response rating, Crabgrass, Large: 90
[10]; [18]
  Plant response rating, Crabgrass, Large: 0
[10]; [19]
  Plant response rating, Crabgrass, Large: 20
[10]; [20]
  Plant response rating, Crabgrass, Large: 65
[10]; [21]
  Crabgrass, Large plant response rating: 98
[11]; [14]
  Plant response rating, Morningglory: 70
[11]; [15]
  Plant response rating, Morningglory: 70
[11]; [17]
  Plant response rating, Morningglory: 80
[11]; [16]
  Plant response rating, Morningglory: 98
[11]; [18]
  Plant response rating, Morningglory: 0
[11]; [19]
  Plant response rating, Morningglory: 0
[11]; [20]
  Plant response rating, Morningglory: 15
[11]; [21]
  Morningglory plant response rating: 65
[12]; [14]
  Plant response rating, Cupgrass, Woolly: 40
[12]; [15]
  Plant response rating, Cupgrass, Woolly: 45
[12]; [17]
  Plant response rating, Cupgrass, Woolly: 60
[12]; [16]
  Plant response rating, Cupgrass, Woolly: 80
[12]; [18]
  Plant response rating, Cupgrass, Woolly: 0
[12]; [19]
  Plant response rating, Cupgrass, Woolly: 0
[12]; [20]
  Plant response rating, Cupgrass, Woolly: 65
[12]; [21]
  Cupgrass, Woolly plant response rating: 85
[13]; [14]
  Plant response rating, Nutsedge, Yellow: 10
[13]; [15]
  Plant response rating, Nutsedge, Yellow: 15
[13]; [17]
  Plant response rating, Nutsedge, Yellow: 15
[13]; [16]
  Plant response rating, Nutsedge, Yellow: 60
[13]; [18]
  Plant response rating, Nutsedge, Yellow: 45
[13]; [19]
  Plant response rating, Nutsedge, Yellow: 75
[13]; [20]
  Plant response rating, Nutsedge, Yellow: 90
[13]; [21]
  Nutsedge, Yellow plant response rating: 90
